From publication doi:10.1101/2025.08.13.670122v1 (bioRxiv, 2025) come the findings set out here.

Peptide text beside a SMILES is read from it.

A short description of one data set: Plasma stability. Type of data set: in vitro ADME. The note with it: male Sprague-Dawley rat plasma, 6 μL of 1 mM compound (10% DMSO) in 27 μL plasma, 37°C, 0-24 h, UPLC-MS, one-phase decay, mean ± SEM of at least three experiments, read-out: Plasmatic half-life t1/2 (±SEM). Here is the method:
The degradation was quenched by adding 140 μL of 1% formic acid in an acetonitrile-ethanol (1:1) solution containing 0.25 mM of N,N-dimethylbenzamide (used as an internal standard). This mixture was initially transferred to an Impact Protein Precipitation filter plate (Phenomenex, California), the filtrates from which were subsequently collected in a second 96-well UPLC plate. Both plates were centrifuged at 500 g for 10 min while maintaining a temperature of 4°C. The filtrates were then diluted with 30 μL of distilled water and processed for analysis using an Acquity UPLC-MS system class H (using an Acquity UPLC protein BEH C18 column that measured 2.1 mm × 50 mm and had 1.7 μm particles with pores 130 Å in width). The peptide half-life, derived from the degradation curve, was calculated using the exponential one-phase decay function in GraphPad Prism 9. Degradation was estimated by comparing the mass spectrum at each point with those at the zero-minute mark. The data were presented as a mean ± SEM of at least three unique experiments, each performed in singlicate.

Data set [1] has as its target T1, AT1R (Homo sapiens, UniProt P30556).
T1 sequence (P30556 1-359): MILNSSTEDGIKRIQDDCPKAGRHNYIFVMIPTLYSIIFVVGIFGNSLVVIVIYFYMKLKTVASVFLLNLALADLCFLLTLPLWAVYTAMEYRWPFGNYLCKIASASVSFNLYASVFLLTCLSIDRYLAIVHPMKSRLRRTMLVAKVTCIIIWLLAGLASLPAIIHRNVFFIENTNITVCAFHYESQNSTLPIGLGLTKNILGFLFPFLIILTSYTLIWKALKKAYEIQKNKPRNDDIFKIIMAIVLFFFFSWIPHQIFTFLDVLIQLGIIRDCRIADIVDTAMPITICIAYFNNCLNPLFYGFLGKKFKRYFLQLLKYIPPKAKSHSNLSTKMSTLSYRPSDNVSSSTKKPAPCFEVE
Briefly: Gαq activation BRET (GABY sensor) in HEK293 cells expressing AT1R. Type of data set: cell-based. On the set-up: expressed in transfected cells; host or cells: HEK293 cells, transient PEI transfection. The following applies: for Emax Gαq (% AngII): HEK293/AT1R, GABY BRET sensor, response of the ligand at 10 μM, normalised to AngII; for EC50: HEK293 cells transiently expressing human AT1R, Gαq-RlucII/Gβ1/Gγ1-GFP10 (GABY) BRET sensor, BRET read 10 min after ligand, mean ± SEM of at least three to five independent experiments. The text has this: (§1) We utilized a clonal cell line HEK293, referred to hereafter as HEK293 cells, which has been previously described.[7],[8] As a gracious gift from A. Inoue (Tohoku University, Sendai, Miyagi, Japan), CRISPR Gαq/11 and Gα12/13 knockout cell lines (ΔGq/11 and ΔG12/13, respectively), were derived as previously explained.[48] In brief, a CRISPR-Cas9 system was used to target either GNAQ and GNA11 or GNA12 and GNA13 genes in HEK293T cells simultaneously to generate the Gαq/11 and Gα12/13 knockout cell lines. For the production of adenovirus, we utilized HEK293A cells. All cells were grown in DMEM supplemented with 10% FBS and Penicillin-Streptomycin-L-Glutamine (10000 IU penicillin, 10000 µg/mL Streptomycin, 200 mM L-Glutamine) at 37°C in T175 flasks under a 5% CO2 humidified chamber. Periodic testing was carried out for mycoplasma contamination (ABM™, Mycoplasma PCR Detection kit). For all biosensors used, cells underwent transfection with the PEI reagent, employing a PEI:DNA ratio of 3:1. For the Gαq biosensor, HEK293 cells were transfected with the plasmids coding for Gαq-RLucII (120 ng), Gβ1 (3000 ng), Gγ1-GFP10 (3000 ng), human AT1 (3000 ng) and Salmon sperm DNA (SSD) (880 ng). For the β-arrestin2 recruitment assay, HEK293 cells were transfected with the plasmids coding for 120 ng β-arrestin-2-RLucII, 3000 ng AT1, 3000 ng rGFP-CAAX, and 3880 ng SSD. For the measurement of PKC, HEK293 cells were transfected with 3000 ng AT1, 600 ng PKC-c1b, and 6400 ng SSD. […] 100 µL of the cell/DNA mixture was added to white 96-well plates and incubated at 37°C at 5% CO2 for 48 h. For the Rho assay, ΔG12/13 cells were seeded at a density of 9,000 cells per well in poly-ornithine-coated white 96-well plates and transfected the following day. In brief, 1 μg of total DNA in 100 μL of PBS was mixed with 100 μL of PBS containing 3 μL of 1 mg/mL PEI. For Rho signaling, 150 ng of AT1R DNA with 25 ng of PKN-RBD-RlucII [8], and 100 ng of rGFP-CAAX were used. Empty pcDNA was used to reach 1 µg of the total DNA amount in 100 μL of PBS. The DNA was then mixed with 100 μL of PBS containing 3 μL of 1 mg/mL PEI. After a 20-min incubation, the DNA/PEI complexes were dispensed into cells in 96-well plates (15 µL/well), and the experiment was carried out 48 h post-transfection.
(§2) On the day of the experiment, each well was washed with 80 µL of Tyrode’s buffer (140 mM NaCl, 2.7 mM KCl, 1 mM CaCl2, 12 mM NaHCO3, 5.6 mM D-glucose, 0.5 mM MgCl2, 0.37 mM NaH2PO4, 25 mM Hepes (pH 7.4)). This was followed by incubation for 1 h in Tyrode’s buffer at room temperature. For the Gαq, β-arrestin-2, and PKC biosensors used in HEK293 cells, coelenterazine 400A (at a final concentration of 5 μM) was added 10 min before stimulation. Cells were then stimulated with increasing doses of the indicated ligand, and BRET signals were measured using a Tristar2 (Berthold) microplate reader 10 min later. For the PKC and Rho biosensors in VSMCs, and the Rho biosensor in ΔG12/13 cells, cells were similarly stimulated with ligands for 1 min, 1 min 30 s, and 3 min, respectively, before BRET measurement. […] BRET signals were then measured using a Synergy2 (BioTek) microplate reader. The applied filter set was 410/80 nm and 515/30 nm, designed to detect the light emissions of RlucII (Renilla luciferase) (donor) and rGFP (acceptor), respectively.
(Bioluminescence resonance energy transfer reports proximity on the nanometre scale.)

For data set [2], the target named is T1, AT1R. Briefly: β-arrestin2 recruitment BRET (β-arrestin2-RLucII/rGFP-CAAX) in HEK293 cells expressing AT1R. Format: cell-based. On the set-up: expressed in transfected cells; host or cells: HEK293 cells, transient PEI transfection. The note with it: for Emax βarr2 (% AngII): HEK293/AT1R, β-arrestin2 BRET, response of the ligand at 10 μM, normalised to AngII; for EC50: HEK293 cells transiently expressing AT1R, β-arrestin2-RLucII/rGFP-CAAX BRET, read 10 min after ligand, mean ± SEM of at least three to five independent experiments, SEM, read-out: EC50 βarr2.
Description: as §1, §2
(Activated receptors often draw arrestin, which recruitment assays turn into a signal.)

For orientation: EC50 means the concentration needed to bring the measured effect to its halfway point.

For `CC[C@H](C)[C@H](NC(=O)[C@H](Cc1ccc(O)cc1)NC(=O)[C@@H](NC(=O)[C@H](CCCNC(=N)N)NC(=O)[C@@H](N)CC(=O)O)C(C)C)C(=O)N[C@@H](Cc1c[nH]cn1)C(=O)N1CCC[C@H]1C(=O)N[C@@H](Cc1ccccc1Cl)C(=O)O` [29a], the half-life at 182 µM in the data set “Plasma stability” is 32 ± 3 min.
With `CC[C@H](C)[C@H](NC(=O)[C@H](Cc1ccc(O)cc1)NC(=O)[C@@H](NC(=O)[C@H](CCCNC(=N)N)NC(=O)[C@@H](N)CC(=O)O)C(C)C)C(=O)N[C@@H](Cc1c[nH]cn1)C(=O)N1CCC[C@H]1C(=O)N[C@H](C(=O)O)C(c1ccccc1)c1ccccc1` [compound 15], on AT1R [1], the “Emax Gαq (% AngII)” value came to 99 % AngII. The EC50 was 7.9 ± 1.7 nM on AT1R [1] (SEM) and 6.7 ± 0.8 nM at AT1R [2]. Besides, on AT1R [2], the “Emax βarr2 (% AngII)” value stood at 109 % AngII.
`CC[C@H](C)[C@H](NC(=O)[C@H](Cc1ccc(O)cc1)NC(=O)[C@@H](NC(=O)[C@H](CCCNC(=N)N)NC(=O)[C@@H](N)CC(=O)O)C(C)C)C(=O)N[C@@H](Cc1c[nH]cn1)C(=O)N1CCC[C@H]1C(=O)N[C@@H](COCc1ccccc1)C(=O)O` [compound 16]: on AT1R [1], the “Emax Gαq (% AngII)” value is recorded as 26 % AngII and the EC50 is above 10000 nM. At AT1R [1] (SEM), the EC50 was found to be 2.3 ± 4 nM. At AT1R [2], the “Emax βarr2 (% AngII)” value was 87 % AngII and the EC50 was 3 ± 0.5 nM.
As to `CC[C@H](C)[C@H](NC(=O)[C@H](Cc1ccc(O)cc1)NC(=O)[C@@H](NC(=O)[C@H](CCCNC(=N)N)NC(=O)[C@@H](N)CC(=O)O)C(C)C)C(=O)N[C@@H](Cc1c[nH]cn1)C(=O)N1CCC[C@H]1C(=O)N[C@@H](Cc1ccncc1)C(=O)O` [compound 17], on AT1R [1], the “Emax Gαq (% AngII)” value is 37 % AngII. Also, at AT1R [1] (SEM), the EC50 came out at 7.5 ± 6.3 nM. On AT1R [2], the “Emax βarr2 (% AngII)” value was determined as 105 % AngII and the EC50 was found to be 5.2 ± 1 nM.
Take `CC[C@H](C)[C@H](NC(=O)[C@H](Cc1ccc(O)cc1)NC(=O)[C@@H](NC(=O)[C@H](CCCNC(=N)N)NC(=O)[C@@H](N)CC(=O)O)C(C)C)C(=O)N[C@@H](Cc1c[nH]cn1)C(=O)N1CCC[C@H]1C(=O)N[C@@H](Cc1cccnc1)C(=O)O` [compound 18]: on AT1R [1], the “Emax Gαq (% AngII)” value was 31 % AngII. Further, the EC50 at AT1R [1] (SEM) amounted to 22 ± 11 nM. Also, at AT1R [2], the “Emax βarr2 (% AngII)” value came out at 90 % AngII and the EC50 worked out at 3.7 ± 0.7 nM.
For the molecule `CC[C@H](C)[C@H](NC(=O)[C@H](Cc1ccc(O)cc1)NC(=O)[C@@H](NC(=O)[C@H](CCCNC(=N)N)NC(=O)[C@@H](N)CC(=O)O)C(C)C)C(=O)N[C@@H](Cc1c[nH]cn1)C(=O)N1CCC[C@H]1C(=O)N[C@@H](Cc1ccccn1)C(=O)O` [compound 19], on AT1R [1], the “Emax Gαq (% AngII)” value came out at 48 % AngII. Further, on AT1R [1] (SEM), the EC50 was found to be 6.9 ± 2.6 nM. For the same molecule, at AT1R [2], the “Emax βarr2 (% AngII)” value came out at 101 % AngII and the EC50 is 2.2 ± 0.4 nM.
The like results for `CC[C@H](C)[C@H](NC(=O)[C@H](Cc1ccc(O)cc1)NC(=O)[C@@H](NC(=O)[C@H](CCCNC(=N)N)NC(=O)[C@@H](N)CC(=O)O)C(C)C)C(=O)N[C@@H](Cc1c[nH]cn1)C(=O)N1CCC[C@H]1C(=O)N[C@@H](Cc1cscn1)C(=O)O` [compound 20] were, in that order, 29 % AngII, 14 ± 13 nM, 97 % AngII and 1.9 ± 0.3 nM.
As for `CC[C@H](C)[C@H](NC(=O)[C@H](Cc1ccc(O)cc1)NC(=O)[C@@H](NC(=O)[C@H](CCCN=C(N)N)NC(=O)[C@@H](N)CC(=O)O)C(C)C)C(=O)N[C@@H](Cc1c[nH]cn1)C(=O)N1CCC[C@H]1C(=O)N[C@@H](Cc1c[nH]c2ccccc12)C(=O)O` [compound 21] (H-DRVYIHPW-OH), the EC50 at AT1R [1] (SEM) was 4.7 ± 1.1 nM; on AT1R [2], 2.2 ± 0.4 nM.
Consider `CC[C@H](C)[C@H](NC(=O)[C@H](Cc1ccc(O)cc1)NC(=O)[C@@H](NC(=O)[C@H](CCCNC(=N)N)NC(=O)[C@@H](N)CC(=O)O)C(C)C)C(=O)N[C@@H](Cc1c[nH]cn1)C(=O)N1CCC[C@H]1C(=O)N[C@@H](Cc1c[nH]c2ccccc12)C(=O)O` [compound 21] (H-DRVYIHPW-OH; N-terminus assumed), for which the “Emax Gαq (% AngII)” value at AT1R [1] is listed as 91 % AngII. Moreover, the “Emax βarr2 (% AngII)” value on AT1R [2] is reported as 107 % AngII.
